According to PMC4722887 (Oncology Reports, 2015):

Tested on: CD8 T cells of HLA-A*0201-transgenic HHD mice
Type: in vivo, mouse

Substance	CD8 T-cell immune responses against the native epitope, peptide emulsified in IFA (injected in HHD mice)	Immunogenicity when coupled to the surface of the liposomes (HHD mice)
14: heteroclitical peptide derived from #13 (p944) (LQAYRFHAV) [Peptide 14]	only weak	–
1: native hTERT peptide, start position 540 (540–548) (ILAKFLHWL) [Peptide 1]	–	no immunogenicity
